Measurements taken from ChEMBL document CHEMBL3885861, “Open TG-GATES”.

Species: Rattus norvegicus
Test: Open TG-GATES - Regimen: Single
Assay type: toxicity, organism-based, Sprague-Dawley
Design: regimen Single, gender Male, age 6 weeks
Settings: in vivo, po, route gavage; for Bas / Eos / Fbg / Hb / Ht / Lym / MCHC / MCV / Mono / Neu / PT / Plat / RBC / WBC / MCH / APTT: tissue Blood; for KIDNEY_L / KIDNEY_R / KIDNEY_TOTAL: tissue Kidney; for LIVER: tissue Liver; for ALT / AST / BUN / CRE / Cl / DBIL / GLC / IP / LDH / Na / RALB / TBIL / TC / TG / TP / gamma-GTP: tissue Plasma
[1] = 20 mg/kg, 3 h, dose level Middle

CC/C(=C(\c1ccccc1)c1ccc(OCCN(C)C)cc1)c1ccccc1 [TAMOXIFEN]
Bas (6 mg/kg, 3 h, dose level Low): 0% | Eos (6 mg/kg, 3 h, dose level Low): 1% | Fbg (6 mg/kg, 3 h, dose level Low): 247 mg/dL | Hb (6 mg/kg, 3 h, dose level Low): 13.1 g/dL | Ht (6 mg/kg, 3 h, dose level Low): 39.6% | Lym (6 mg/kg, 3 h, dose level Low): 78.4% | MCHC (6 mg/kg, 3 h, dose level Low): 33.1% | MCV (6 mg/kg, 3 h, dose level Low): 64.6 fL | Mono (6 mg/kg, 3 h, dose level Low): 3.4% | Neu (6 mg/kg, 3 h, dose level Low): 16.6% | PT (6 mg/kg, 3 h, dose level Low): 12 s | Plat (6 mg/kg, 3 h, dose level Low): 122.7 x10_4/uL | RBC (6 mg/kg, 3 h, dose level Low): 612.6 x10_4/ul | WBC (6 mg/kg, 3 h, dose level Low): 83.4 x10_2/uL | KIDNEY_L (6 mg/kg, 3 h, dose level Low): 0.8 g | KIDNEY_R (6 mg/kg, 3 h, dose level Low): 0.9 g | KIDNEY_TOTAL (6 mg/kg, 3 h, dose level Low): 1.7 g | LIVER (6 mg/kg, 3 h, dose level Low): 8.4 g | ALT (6 mg/kg, 3 h, dose level Low): 50.6 IU/L | AST (6 mg/kg, 3 h, dose level Low): 81.2 IU/L | BUN (6 mg/kg, 3 h, dose level Low): 11.2 mg/dL | CRE (6 mg/kg, 3 h, dose level Low): 0.2 mg/dL | Cl (6 mg/kg, 3 h, dose level Low): 107.6 meq/L | DBIL (6 mg/kg, 3 h, dose level Low): 0.032 mg/dL | GLC (6 mg/kg, 3 h, dose level Low): 173.4 mg/dL | IP (6 mg/kg, 3 h, dose level Low): 8.9 mg/dL | LDH (6 mg/kg, 3 h, dose level Low): 58.2 IU/L | Na (6 mg/kg, 3 h, dose level Low): 140.4 meq/L | RALB (6 mg/kg, 3 h, dose level Low): 2.6 g/dL | TBIL (6 mg/kg, 3 h, dose level Low): 0.046 mg/dL | TC (6 mg/kg, 3 h, dose level Low): 80.8 mg/dL | TG (6 mg/kg, 3 h, dose level Low): 113.6 mg/dL | TP (6 mg/kg, 3 h, dose level Low): 5.6 g/dL | gamma-GTP (6 mg/kg, 3 h, dose level Low): 1 IU/L | TERMINAL_BW (6 mg/kg, 6 h, dose level Low): 195.3 g | Bas (6 mg/kg, 6 h, dose level Low): 0% | Eos (6 mg/kg, 6 h, dose level Low): 1% | Fbg (6 mg/kg, 6 h, dose level Low): 258.6 mg/dL | Hb (6 mg/kg, 6 h, dose level Low): 13.1 g/dL | Ht (6 mg/kg, 6 h, dose level Low): 39.6% | Lym (6 mg/kg, 6 h, dose level Low): 77.4% | MCH (6 mg/kg, 6 h, dose level Low): 21.6 pg | MCHC (6 mg/kg, 6 h, dose level Low): 33.2% | MCV (6 mg/kg, 6 h, dose level Low): 65.1 fL | Mono (6 mg/kg, 6 h, dose level Low): 3.2% | Neu (6 mg/kg, 6 h, dose level Low): 18% | PT (6 mg/kg, 6 h, dose level Low): 12.1 s | Plat (6 mg/kg, 6 h, dose level Low): 120.4 x10_4/uL | RBC (6 mg/kg, 6 h, dose level Low): 608.2 x10_4/ul | WBC (6 mg/kg, 6 h, dose level Low): 67.4 x10_2/uL | KIDNEY_L (6 mg/kg, 6 h, dose level Low): 0.9 g | KIDNEY_R (6 mg/kg, 6 h, dose level Low): 0.9 g | KIDNEY_TOTAL (6 mg/kg, 6 h, dose level Low): 1.7 g | LIVER (6 mg/kg, 6 h, dose level Low): 8.2 g | ALT (6 mg/kg, 6 h, dose level Low): 41 IU/L | AST (6 mg/kg, 6 h, dose level Low): 77 IU/L | BUN (6 mg/kg, 6 h, dose level Low): 8.2 mg/dL | CRE (6 mg/kg, 6 h, dose level Low): 0.1 mg/dL | Cl (6 mg/kg, 6 h, dose level Low): 108.2 meq/L | DBIL (6 mg/kg, 6 h, dose level Low): 0.014 mg/dL | GLC (6 mg/kg, 6 h, dose level Low): 180.2 mg/dL | IP (6 mg/kg, 6 h, dose level Low): 10.9 mg/dL | LDH (6 mg/kg, 6 h, dose level Low): 93.6 IU/L | Na (6 mg/kg, 6 h, dose level Low): 141.6 meq/L | RALB (6 mg/kg, 6 h, dose level Low): 2.5 g/dL | TBIL (6 mg/kg, 6 h, dose level Low): 0.05 mg/dL | TC (6 mg/kg, 6 h, dose level Low): 81.4 mg/dL | TG (6 mg/kg, 6 h, dose level Low): 46.6 mg/dL | TP (6 mg/kg, 6 h, dose level Low): 5.4 g/dL | gamma-GTP (6 mg/kg, 6 h, dose level Low): 1.4 IU/L | TERMINAL_BW (6 mg/kg, 9 h, dose level Low): 191.5 g | APTT (6 mg/kg, 9 h, dose level Low): 16 s | Bas (6 mg/kg, 9 h, dose level Low): 0% | Eos (6 mg/kg, 9 h, dose level Low): 1% | Fbg (6 mg/kg, 9 h, dose level Low): 248.8 mg/dL | Hb (6 mg/kg, 9 h, dose level Low): 12.8 g/dL | Lym (6 mg/kg, 9 h, dose level Low): 68.8% | MCH (6 mg/kg, 9 h, dose level Low): 21.5 pg | MCHC (6 mg/kg, 9 h, dose level Low): 33.5% | MCV (6 mg/kg, 9 h, dose level Low): 64.3 fL | Mono (6 mg/kg, 9 h, dose level Low): 2.6% | Neu (6 mg/kg, 9 h, dose level Low): 27.2% | PT (6 mg/kg, 9 h, dose level Low): 12.5 s | Plat (6 mg/kg, 9 h, dose level Low): 116.1 x10_4/uL | RBC (6 mg/kg, 9 h, dose level Low): 597.4 x10_4/ul | WBC (6 mg/kg, 9 h, dose level Low): 68.7 x10_2/uL | KIDNEY_L (6 mg/kg, 9 h, dose level Low): 0.8 g | KIDNEY_R (6 mg/kg, 9 h, dose level Low): 0.8 g | KIDNEY_TOTAL (6 mg/kg, 9 h, dose level Low): 1.6 g | LIVER (6 mg/kg, 9 h, dose level Low): 7.1 g | ALT (6 mg/kg, 9 h, dose level Low): 39 IU/L | AST (6 mg/kg, 9 h, dose level Low): 77.2 IU/L | BUN (6 mg/kg, 9 h, dose level Low): 9.6 mg/dL | CRE (6 mg/kg, 9 h, dose level Low): 0.2 mg/dL | Cl (6 mg/kg, 9 h, dose level Low): 108.2 meq/L | DBIL (6 mg/kg, 9 h, dose level Low): 0.01 mg/dL | GLC (6 mg/kg, 9 h, dose level Low): 186.6 mg/dL | IP (6 mg/kg, 9 h, dose level Low): 11 mg/dL | LDH (6 mg/kg, 9 h, dose level Low): 62.4 IU/L | Na (6 mg/kg, 9 h, dose level Low): 143.6 meq/L | RALB (6 mg/kg, 9 h, dose level Low): 2.5 g/dL | TBIL (6 mg/kg, 9 h, dose level Low): 0.046 mg/dL | TC (6 mg/kg, 9 h, dose level Low): 67.2 mg/dL | TG (6 mg/kg, 9 h, dose level Low): 33.4 mg/dL | TP (6 mg/kg, 9 h, dose level Low): 5.3 g/dL | gamma-GTP (6 mg/kg, 9 h, dose level Low): 1 IU/L | TERMINAL_BW (6 mg/kg, 24 h, dose level Low): 194.3 g | APTT (6 mg/kg, 24 h, dose level Low): 17.4 s | Bas (6 mg/kg, 24 h, dose level Low): 0% | Eos (6 mg/kg, 24 h, dose level Low): 1.2% | Fbg (6 mg/kg, 24 h, dose level Low): 250.2 mg/dL | Hb (6 mg/kg, 24 h, dose level Low): 12.8 g/dL | Ht (6 mg/kg, 24 h, dose level Low): 38.6% | Lym (6 mg/kg, 24 h, dose level Low): 79% | MCH (6 mg/kg, 24 h, dose level Low): 20.9 pg | MCHC (6 mg/kg, 24 h, dose level Low): 33.2% | MCV (6 mg/kg, 24 h, dose level Low): 62.9 fL | Mono (6 mg/kg, 24 h, dose level Low): 3.2% | Neu (6 mg/kg, 24 h, dose level Low): 16.4% | PT (6 mg/kg, 24 h, dose level Low): 12.8 s | Plat (6 mg/kg, 24 h, dose level Low): 113.7 x10_4/uL | RBC (6 mg/kg, 24 h, dose level Low): 613.8 x10_4/ul | WBC (6 mg/kg, 24 h, dose level Low): 80.8 x10_2/uL | KIDNEY_L (6 mg/kg, 24 h, dose level Low): 0.9 g | KIDNEY_R (6 mg/kg, 24 h, dose level Low): 0.9 g | KIDNEY_TOTAL (6 mg/kg, 24 h, dose level Low): 1.7 g | LIVER (6 mg/kg, 24 h, dose level Low): 8.7 g | ALT (6 mg/kg, 24 h, dose level Low): 51 IU/L | AST (6 mg/kg, 24 h, dose level Low): 79.8 IU/L | BUN (6 mg/kg, 24 h, dose level Low): 12.8 mg/dL | CRE (6 mg/kg, 24 h, dose level Low): 0.2 mg/dL | Cl (6 mg/kg, 24 h, dose level Low): 108 meq/L | DBIL (6 mg/kg, 24 h, dose level Low): 0.012 mg/dL | GLC (6 mg/kg, 24 h, dose level Low): 184.4 mg/dL | IP (6 mg/kg, 24 h, dose level Low): 8 mg/dL | LDH (6 mg/kg, 24 h, dose level Low): 55.2 IU/L | Na (6 mg/kg, 24 h, dose level Low): 142.4 meq/L | RALB (6 mg/kg, 24 h, dose level Low): 2.5 g/dL | TBIL (6 mg/kg, 24 h, dose level Low): 0.036 mg/dL | TC (6 mg/kg, 24 h, dose level Low): 61.6 mg/dL | TG (6 mg/kg, 24 h, dose level Low): 64.2 mg/dL | TP (6 mg/kg, 24 h, dose level Low): 5.4 g/dL | gamma-GTP (6 mg/kg, 24 h, dose level Low): 1.4 IU/L | TERMINAL_BW [1]: 194.9 g | APTT [1]: 16.5 s | Bas [1]: 0.2%
